According to patent publication US4098823A, “Monospiroalkyl derivatives of prostaglandins” (Miles Laboratories, Inc., priority 1977, dated 1978):

Legend:
[1] = test system: steroidogenesis in the adrenal glands; conditions: hypophysectomized rats; cited from earlier work
[2] = test system: female reproductive system; conditions: in vivo; cited from earlier work
adrenergic nerve endings = conditions: guinea pig; cited from earlier work
[3] = test system: Blood Pressure and Heart Rate; assay: Effects on Blood Pressure and Heart Rate in the Anesthetized Cat; type: in vivo; conditions: Felis catus, intravenous, 0.01 to 10.0 mcg/kg, scored only on hypotension, read-out: Test D Activity Value (ED50 mmHg, decrease in blood pressure);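 also: Anesthetized cats given intravenous doses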
Method: The acute effects of test compounds on blood pressure and heart rate were determined in cats of either sex anesthetized with a mixture of pentobarbital sodium (35 mg/kg, i.v.) and barbital sodium (100 mg/kg, i.v.). Cannulas were placed in the trachea to allow adequate spontaneous ventilation, in a femoral artery for blood pressure recording with a strain gage transducer, and in a saphenous vein for drug administration. Heart rate was recorded by means of a cardiotachometer driven by the R wave of the electrocardiogram. After a period of 10 minutes of stable recordings of blood pressure and heart rate, the test compound was administered intravenously at doses increasing from 0.01 to 10.0 mcg/kg, spaced one log and injected at 10 minutes intervals. All doses were injected in a volume of 0.1 ml/kg. Modifications of blood pressure and heart rate induced by the test compound were expressed both in absolute units (mmHg and beats/minutes) and as percent of values recorded immediately before administration of each dose. Biphasic responses were tabulated in the order in which they occur. The direction of the observed changes was also noted (+ for increases and - for decreases).
Activity of compounds in this test was judged only on the basis of the degree of hypotension observed. Thus, the ED50 mmHg (dose decreasing blood pressure by 50 mmHg) was calculated graphically and the compound scored according to the following scale: […]

rat colon = assay: Cascade Assay, colon (smooth muscle stimulant effect); type: cell-based; conditions: superfused, 50% of maximum (PGF2α)
Method: (§1) The smooth muscle stimulant effects of test compounds were determined simultaneously in four different tissues that are known to be reactive to naturally occurring prostaglandins. Segments of rat stomach fundus, rat colon, chick rectum and rabbit aortic strip were obtained as described by: Vane, J. R., Brit. J. Pharmacol., 12: 344 (1957); Regoli, D. and Vane, J. R., Brit. J. Pharmacol., 23: 351 (1964); Mann, M. and West, G. B., Brit. J. Pharmacol., 5: 173 (1950); and Furchgott, R. F. and Bhadrakom, R., J. Pharmacol. Exper. Ther., 108: 129 (1953). One end of each preparation was tied to the bottom of a 10 ml tissue chamber and the other to a force displacement transducer (Grass FT-03) for continuous tension recording. The stomach, colon, and rectum segments were stretched to an initial tension of 1 g, while the aortic strip was subjected to 4 g. All preparations were left undisturbed for 1 hour prior to testing. The chambers were equipped with an external jacket through which water, maintained at 40° C, was circulated. Preparations were arranged one beneath the other in descending order (aorta, stomach, colon and rectum). Provision was made for bathing the four tissues successively so that they were superfused with the same fluid (Gaddum, H. J., Brit. J. Pharmacol., 6: 321 [1953]. The bathing fluid consisted of: Krebs bicarbonate solution aerated with a mixture of 95% O2 and 5% CO2 and warmed at 37° C; atropine sulphate (0.1 mcg/ml), phenoxybenzamine hydrochloride (0.1 mcg/ml), propranolol hydrochloride (3.0 mcg/ml), methysergide maleate (0.2 mcg/ml) and brompheniramine maleate (0.1 mcg/ml) were added to eliminate the possibility of smooth muscle responses being due to stimulation of cholinergic, adrenergic, serotonin or histamine receptors. The fluid was circulated by means of a roller pump and was allowed to drip over the preparations at a rate of 10 ml/minute.
(§2) Test compounds were diluted from stock solutions so as to administer quantities ranging from 0.001 100,000 ng in a volume of 0.5 ml. The compounds were applied by dripping on the uppermost tissue, at intervals of 10 to 20 minutes. Maximal increases in tension after each dose were measured and the results were used to plot dose-response curves. ED50 data (doses necessary to produce a response 50% of maximum) were then calculated graphically for each tissue.
(§3) Activity in each tissue was scored according to the following scale: […]

rabbit aortic strip = assay: Cascade Assay, aorta (smooth muscle stimulant effect); type: cell-based; conditions: superfused, 50% of maximum (PGA2)
Method: as §1, §2, §3

rat stomach fundus = assay: Cascade Assay, stomach (smooth muscle stimulant effect); type: cell-based; conditions: superfused, 50% of maximum (PGE1)
Method: as §1, §2, §3

Rat Uterus = assay: Effects on the Rat Uterus in Vitro; type: cell-based; conditions: Rattus norvegicus; in vitro, 29° C; response 50% that of carbachol; read-out: Test F Rat Uterus, Activity Value (ED50)
Method: The uterine stimulant effect of test compounds was determined in segments of uterus obtained from rats (140-160 g) pretreated subcutaneously with 1 mg/kg of diethyl-stilbesterol 18 hours before the experiment. The tissues were placed in 10 ml chambers filled with de-Jalon solution at 29° C, were aerated and bubbled with 95% O2 and 5% CO2, and were prepared for isometric recording with force displacement transducers. Preparations were stretched to an initial tension of 1 g and were left undisturbed for 30 minutes. Carbachol (1 mcg/ml) was then added to the bath and a response was recorded. After a 10 minute interval the carbachol procedure was repeated. Responses to increasing concentrations of a test compound (0.001 to 10 mcg/ml with one log intervals) were then recorded every 10 minutes. Preparations were washed four times after each response. All doses of compounds were administered in a 0.1 ml volume. Because it has been observed that the magnitude of the second response to carbachol (approximately 10% greater than the first) is close to the maximal response of the tissue, such value was taken as a measure of the sensitivity of a particular segment. Responses to each concentration of the test compound were expressed in terms of percentage of the second response to carbachol and the ED50 (dose producing a response 50% that of carbachol) was calculated graphically. Activity was scored according to the following scale: […]

Femoral Blood Flow = assay: Effects on Femoral Blood Flow in the Dog; type: in vivo; conditions: anesthetized mongrel dog, intraarterial, 0.001 to 10 mcg
Method: The peripheral vasodilator or constrictor effects of these compounds were determined in mongrel dogs of either sex, weighing between 10 and 20 kg anesthestized intravenously with 35 mg/kg of sodium pentobarbital. An external iliac artery was dissected immediately above the femoral arch for a length of approximately 5 cm and a previously calibrated, non-connulating electromagnetic flowmeter sensor with a lumen between 2.5 and 3.5 mm was placed snugly around the vessel. Cannulas were placed in a branch of the artery arising distally to the location of the flowmeter sensor for intraarterial drug administrations, in the contralateral femoral artery for systemic blood pressure recordings and in the trachea for artificial respiration with room air. Femoral blood flow and systemic blood pressure were continously recorded with an electromagnetic flowmeter and pressure tranducer, respectively.
After an adequate control period, test compounds were injected intraarterially at one log-spaced doses ranging from 0.001 to 10 mcg., in a volume of 0.5 ml and at 5 to 10 minute intervals. Maximum changes in bloodflow, as well as any variations in blood pressure, were tabulated for each dose in absolute values (ml/min. and mmHg). The calculations were made taking as control values those existing immediately before administration of each dose. The direction of the observed change (plus for increase and minus for decrease) was also noted. The dose changing bloodflow by 100 ml/min (ED100 ml/min) was calculated graphically and was used for scoring activity as follows: […]

chick rectum = assay: Cascade Assay, rectum (smooth muscle stimulant effect); type: cell-based; conditions: superfused, 50% of maximum (PGE1)
Method: as §1, §2, §3

Gastric Secretion = assay: Effects on Gastric Secretion in the Rat; type: in vivo; conditions: pylorus-ligated rat, subcutaneous, 2 x 1.5 mg/kg (total 3.0 mg/kg), 4 hours
Method: A procedure based on that described by Lipmann (J. Pharm. Pharmacol., 21:335 [1968]) was used to assess the influence of test compounds on gastric secretion. Rats of one sex weighing 150 to 200 g were randomly divided into groups of six animals each and fasted for 48 hours previously to the experiments, water being available adlibitum. The animals were anesthetized with ether, the abdomen was opened through a midline incision and the pylorus was ligated. Test compounds were diluted from stock solution so as to administer a dose of 1.5 mg/kg in a volume equivalent to 1 ml/kg. Subcutaneous injections were applied immediately after surgery and again 2 hours later, so that a total dose of 3.0 mg/kg was administered. Dilutions were made with phosphate buffer (pH 7.38) as recommended by Lee et al. (Prostaglandins 3:29 [1973]), in order to insure adequate stability of drugs at the subcutaneous depot. Each compound was tested in one group of rats; an additional control group received only the vehicle.
Four hours after pyloric ligation the animals were killed with ether, the cardias ligated and the stomachs removed. The volume of gastric secretion was measured and the contents centrifuged at 500 rpm for 10 minutes. Total acid in the supernatant was titrated against a 0.1 N sodium hydroxide solution and the amount expressed in mEq.
Volume and total acid values of the treated group were compared with those of the controls by the "T" test. Antisecretory activity was scored according to the following scale: […]

[4] = test system: Human Platelet Aggregation; assay: Inhibition of Human Platelet Aggregation; type: cell-based; conditions: in vitro
Method: The ability of test compounds to inhibit platelet aggregation was determined by a modification of the turbidometric technique of Born (Nature, 194:927 [1962]). Blood was collected from human volunteers who had not ingested aspirin or aspirin-containing products within the preceding two weeks in heparinized containers and was allowed to settle for one (1) hour. The platelet rich plasma (prp) supernates were collected and cooled. Siliconized glassware was used throughout.
In a representative assay 1.9 ml of PRP and 0.2 ml of test compound at the appropriate concentrations (0.001 to 100 mcgm), or 0.2 ml of distilled water (control procedure) were placed in sample cuvettes. The cuvettes were placed in a 37° C incubation block for 15 minutes, and then in a spectrophotometer linked to a strip chart recorder. After 30-60 seconds, 0.2 ml of a solution, prepared by diluting a calf-skin collagen solution 1:9 with Tyrodes' Solution, was added to each cuvette. Platelet aggregation was evidenced by a decrease in optical density.
An ED50 value was then determined graphically.

EC50 (Rat Uterus)	SMILES	steroidogenesis in the adrenal glands [1]	effect in the female reproductive system (fertility, labor, abortion) [2]	transmitter release from adrenergic nerve endings (adrenergic nerve endings)	ED (50 mmHg) [3]	Test E Cascade Assay, Colon, Activity Value (ED50) (rat colon)	Test E Cascade Assay, Aorta, Activity Value (ED50) (rabbit aortic strip)	Test E Cascade Assay, Stomach, Activity Value (ED50) (rat stomach fundus)	Test C Activity Value (ED100 ml/min, increase in femoral blood flow) (Femoral Blood Flow)	Test E Cascade Assay, Rectum, Activity Value (ED50) (chick rectum)	Test B Activity Value (% decrease in acidity, inhibition of gastric secretion) (Gastric Secretion)	inhibition of aggregation of human platelets, in words [4]
	CCCCC[C@H](O)/C=C/[C@H]1[C@H](O)CC(=O)[C@@H]1C/C=C\CCCC(=O)O [PGE2]	stimulate steroidogenesis in the adrenal glands	potent oxytocic effects in inducing labor	inhibit transmitter release from adrenergic nerve endings								
	CCCCC[C@H](O)/C=C/[C@@H]1[C@@H](CCCCCCC(=O)O)[C@@H](O)C[C@H]1O [PGF1α]	stimulate steroidogenesis in the adrenal glands										
> 10 mg/L	COC(=O)CCCCCC[C@H]1C(=O)C[C@@H](O)[C@@H]1/C=C/[C@@H](O)C1CC2(CCC2)C1 [TR-4121, Methyl 7-{3R-hydroxy-5-oxo-2R-[3S-hydroxy-3-(spiro[3.3]hept-2-yl)-1E-propenyl]cyclopent-1R-yl}heptanoate]				> 0.01 mg/kg	0 (>10000)	0 (>10000)	0 (>10000)	2 (0.11 - 1.0)	0 (>10000)	1 (26-50, not significant)	
> 10 mg/L	COC(=O)CCCCCC[C@@H]1[C@@H](/C=C/[C@@H](O)C2CC3(CCC3)C2)[C@H](O)C[C@@H]1O [TR-4139, Methyl 7-{3R,5S-dihydroxy-2R-[3S-hydroxy-3-(spiro[3.3]hept-2-yl)-1E-propenyl]cyclopent-1R-yl}heptanoate]				> 0.01 mg/kg	0 (>10000)	0 (>10000)	0 (>10000)	0 (>10.0)	0 (>10000)	0 (<26)	
> 10 mg/L	COC(=O)CCCCCC[C@H]1C(=O)C[C@@H](O)[C@@H]1/C=C/[C@@H](O)C1(C)CC2(CCC2)C1 [TR-4845, Methyl 7-{3R-hydroxy-5-oxo-2R-[3R-hydroxy-3-(2-methylspiro[3.3]hept-2-yl)-1E-propenyl]cyclopent-1R-yl}heptanoate]					0 (>10000)	0 (>10000)	0 (>10000)		0 (>10000)	3 (51-75)	inhibit aggregation of platelets
